Experimental data published in patent US9073914B2, “Substituted alkyl pyrimidin-4-one derivatives” (SANOFI, priority 2008, dated 2015).

Legend:
GSK3β = GSK3β (Homo sapiens, UniProt P49841); experiment: Inhibitory activity against GSK3β (33P-ATP phosphorylation of prephosphorylated GS1 peptide, four protocols); assay type: biochemical
Experimental: Test Example:Inhibitory Activity of the Medicament of the Present Invention Against GSK3β Four different protocols can be used. In a first protocol: 7.5 μM of prephosphorylated GS1 peptide and 10 μM ATP (containing 300,000 cpm of ^33P-ATP) were incubated in 25 mM Tris-HCl, pH 7.5, 0.6 mM DTT, 6 mM MgCl2, 0.6 mM EGTA, 0.05 mg/ml BSA buffer for 1 hour at room temperature in the presence of GSK3beta (total reaction volume: 100 microliters). In a second protocol: 4.1 μM of prephosphorylated GS1 peptide and 42 μM ATP (containing 260,000 cpm ^33P-ATP) were incubated in 80 mM Mes-NaOH, pH 6.5, 1 mM Mg acetate, 0.5 mM EGTA, 5 mM 2-mercaptoethanol, 0.02% Tween 20, 10% glycerol buffer for 2 hours at room temperature in the presence of GSK3beta. In a third protocol: 7.5 μM of prephosphorylated GS1 peptide and 10 μM ATP (containing 300,000 cpm of ^33P-ATP) were incubated in 50 mM Hepes, pH 7.2, 1 mM DTT, 1 mM MgCl2, 1 mM EGTA, 0.01% Tween 20 buffer for one hour at room temperature in the presence of GSK3beta (total reaction volume: 100 microliters). […] Incorporated ^33P radioactivity was determined by liquid scintillation spectrometry. […]

GSK3β, sequence (P49841 whole entry): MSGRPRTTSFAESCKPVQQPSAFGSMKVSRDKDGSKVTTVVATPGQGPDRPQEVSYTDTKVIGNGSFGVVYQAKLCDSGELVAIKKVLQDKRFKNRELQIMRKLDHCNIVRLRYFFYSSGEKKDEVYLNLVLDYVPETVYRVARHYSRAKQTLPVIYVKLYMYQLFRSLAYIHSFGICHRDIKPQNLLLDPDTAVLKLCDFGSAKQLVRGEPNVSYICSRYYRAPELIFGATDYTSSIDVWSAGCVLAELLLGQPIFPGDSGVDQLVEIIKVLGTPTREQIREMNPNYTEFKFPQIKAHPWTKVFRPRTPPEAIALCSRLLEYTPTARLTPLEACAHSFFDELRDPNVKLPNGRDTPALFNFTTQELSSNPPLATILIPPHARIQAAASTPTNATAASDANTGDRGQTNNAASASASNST

IC50 (GSK3β; protocol 4 (commercial GSK3beta, Millipore; 10 μM ATP; 90 minutes))	melting point	inhibition of GSK3β (GSK3β; at 1 μM)	Compound
8 nM	130 to 132 °C		O=c1cc(-c2ccncn2)nc2n1CCCCC2C1CC1 (racemic) [Compound No 20 of table 2, (+/−)-10-Cyclopropyl-2-pyrimidin-4-yl-7,8,9,10-tetrahydro-6H-pyrimido[1,2-α]azepin-4-one]
		63%	(+/−)-9-Ethyl-4-oxo-2-pyrimidin-4-yl-5,6,8,9-tetrahydro-4H-1,4-a,7-triaza-benzocycloheptene-7-carboxylic acid ethyl ester [Compound No 1 of table 3]
